We go through 17 compounds from PubChem BioAssay (NCI).

Molecules are shown by their SMILES.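 Interpolation was linear, between the two tested concentrations surrounding the appropriate level; five concentrations were tested over 48 hours in 96-well plates. TGI denotes the concentration required for complete inhibition of growth.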

The test system of one assay is NCI-H460 lung. The assay can be described thus: growth of human tumour cells (NCI), 48 h.
On to `COc1ccc2c(c1)C(=O)OCCC2`, for which the TGI is greater than 100 µM.

Compound `COc1ccc(-n2cnn3c(=O)c4cn[nH]c4nc23)cc1` yielded a TGI greater than 10 µM.

`COc1ccc2c(c1)nc1n2C(c2c(Cl)cccc2Cl)SC1` (stereo unspecified) registered a TGI greater than 100 µM.

Regarding `CCOC(=O)c1c(NC(=O)OC)c(C#N)c2n1CCCCC2`, the TGI was greater than 100 µM.

The compound `COc1ccc(-c2nc(-c3cc4c(ccc5ccccc54)oc3=O)cs2)cc1` showed a TGI greater than 100 µM.

As to `CC1=CCC(C)=Nc2nc3ccccc3n21`, the TGI is greater than 100 µM.

For `N#Cc1[nH]c(=S)[nH]c1N`, the TGI is greater than 100 µM.

With `Cc1ccccc1N/C(=C(/C(Cl)=C(Cl)Cl)[N+](=O)[O-])n1nnc2ccccc21`, the TGI is 28.5 µM.

Consider `CNS(=O)(=O)NNS(=O)(=O)c1ccc(Br)cc1`, for which the TGI was greater than 100 µM.

`Cc1ccc(NC(=O)CSc2nnc(-c3ccc(N=Cc4ccc(Cl)cc4)cc3)o2)cc1` displayed a TGI greater than 100 µM.

In turn, `CCC1CCc2c(c(=O)oc3c2cc(OC)c2cccc(OC)c23)C1` (stereo unspecified) returned a TGI greater than 100 µM.

With `COC(=O)C1=C(C(=O)Nc2cccnc2Cl)N(c2ccc(OC)cc2[N+](=O)[O-])C(c2ccc(C)cc2)=CC1c1ccc(OC)cc1OC` (stereo unspecified), the TGI is greater than 79.3 µM.

The next assay relates to NCI/ADR-RES ovarian. The assay can be described thus: growth of human tumour cells (NCI), 48 h.
`Nc1nc(NCC2(CO)CC2)cc(=O)[nH]1` showed a TGI greater than 100 µM.

The compound `Cc1ccc(-c2n[nH]c(=O)n2/N=C\c2ccc([N+](=O)[O-])cc2)cc1` yielded a TGI greater than 100 µM.

For `COc1ccc2c(c1)C(=O)OCCC2`, the TGI is greater than 100 µM.

As to `COc1ccc2c(c1)nc1n2C(c2c(Cl)cccc2Cl)SC1` (stereo unspecified), the TGI is greater than 52.5 µM.

Compound `CCOC(=O)c1c(NC(=O)OC)c(C#N)c2n1CCCCC2` returned a TGI greater than 100 µM.

With `Cc1cc(C)c(C(=O)c2nnc3ccccc3c2N)c(C)c1`, the TGI was 74.2 µM.

In turn, `CC1=CCC(C)=Nc2nc3ccccc3n21` had a TGI greater than 100 µM.

Compound `N#Cc1[nH]c(=S)[nH]c1N` registered a TGI greater than 100 µM.

In turn, `Cc1ccccc1N/C(=C(/C(Cl)=C(Cl)Cl)[N+](=O)[O-])n1nnc2ccccc21` yielded a TGI of 49.5 µM.

For `COC(=O)C1=C(C(=O)Nc2cccnc2Cl)N(c2ccc(OC)cc2[N+](=O)[O-])C(c2ccc(C)cc2)=CC1c1ccc(OC)cc1OC` (stereo unspecified), the TGI came to 47.5 µM.

Another assay concerns PC-3 prostate. The assay can be described thus: growth of human tumour cells (NCI), 48 h.
On to `Cc1nn(C(=O)Cc2ccccc2)c2c1C(c1ccc(Cl)cc1)SC(N)=N2` (stereo unspecified), for which the TGI is greater than 100 µM.

`Nc1nc(NCC2(CO)CC2)cc(=O)[nH]1`: the TGI is greater than 100 µM.

The compound `Cc1ccc(-c2n[nH]c(=O)n2/N=C\c2ccc([N+](=O)[O-])cc2)cc1` registered a TGI greater than 100 µM.

The compound `COc1ccc2c(c1)C(=O)OCCC2` gave a TGI greater than 100 µM.

Compound `COc1ccc(-n2cnn3c(=O)c4cn[nH]c4nc23)cc1` yielded a TGI greater than 10 µM.

For `COc1ccc2c(c1)nc1n2C(c2c(Cl)cccc2Cl)SC1` (stereo unspecified), the TGI was greater than 82.3 µM.

Take `CCOC(=O)c1c(NC(=O)OC)c(C#N)c2n1CCCCC2`: the TGI was greater than 100 µM.

`COc1ccc(-c2nc(-c3cc4c(ccc5ccccc54)oc3=O)cs2)cc1` displayed a TGI greater than 100 µM.

`Cc1cc(C)c(C(=O)c2nnc3ccccc3c2N)c(C)c1` had a TGI of 56.9 µM.

`CC1=CCC(C)=Nc2nc3ccccc3n21` returned a TGI greater than 100 µM.

Compound `N#Cc1[nH]c(=S)[nH]c1N` gave a TGI greater than 100 µM.

For `Cc1ccccc1N/C(=C(/C(Cl)=C(Cl)Cl)[N+](=O)[O-])n1nnc2ccccc21`, the TGI worked out at 80.7 µM.

For the compound `COC(=O)C1=C(C(=O)Nc2cccnc2Cl)N(c2ccc(OC)cc2[N+](=O)[O-])C(c2ccc(C)cc2)=CC1c1ccc(OC)cc1OC` (stereo unspecified), the TGI is greater than 100 µM.

For a further assay, the system named is RXF 393 renal. The assay can be described thus: growth of human tumour cells (NCI), 48 h.
Compound `Nc1nc(NCC2(CO)CC2)cc(=O)[nH]1` gave a TGI greater than 100 µM.

With `S=c1[nH]c(=S)c2nnn(-c3ccccc3)c2[nH]1`, the TGI is greater than 100 µM.

Compound `Cc1ccc(-c2n[nH]c(=O)n2/N=C\c2ccc([N+](=O)[O-])cc2)cc1` showed a TGI greater than 100 µM.

Compound `COc1ccc2c(c1)C(=O)OCCC2` gave a TGI greater than 100 µM.

Consider `COc1ccc2c(c1)nc1n2C(c2c(Cl)cccc2Cl)SC1` (stereo unspecified), for which the TGI is greater than 70.3 µM.

In the case of `CCOC(=O)c1c(NC(=O)OC)c(C#N)c2n1CCCCC2`, the TGI is greater than 100 µM.

`COc1ccc(-c2nc(-c3cc4c(ccc5ccccc54)oc3=O)cs2)cc1`: the TGI is greater than 100 µM.

Compound `CC1=CCC(C)=Nc2nc3ccccc3n21` yielded a TGI greater than 100 µM.

Take `N#Cc1[nH]c(=S)[nH]c1N`: the TGI was greater than 100 µM.

As to `CNS(=O)(=O)NNS(=O)(=O)c1ccc(Br)cc1`, the TGI was greater than 100 µM.

The compound `Cc1ccc(NC(=O)CSc2nnc(-c3ccc(N=Cc4ccc(Cl)cc4)cc3)o2)cc1` registered a TGI greater than 100 µM.

In the case of `CCC1CCc2c(c(=O)oc3c2cc(OC)c2cccc(OC)c23)C1` (stereo unspecified), the TGI was 89.9 µM.

In turn, `COC(=O)C1=C(C(=O)Nc2cccnc2Cl)N(c2ccc(OC)cc2[N+](=O)[O-])C(c2ccc(C)cc2)=CC1c1ccc(OC)cc1OC` (stereo unspecified) had a TGI of 22.2 µM.

The next assay has as its system SF-268 CNS. The assay can be described thus: growth of human tumour cells (NCI), 48 h.
The compound `Cc1nn(C(=O)Cc2ccccc2)c2c1C(c1ccc(Cl)cc1)SC(N)=N2` (stereo unspecified) yielded a TGI greater than 100 µM.

Compound `Nc1nc(NCC2(CO)CC2)cc(=O)[nH]1` showed a TGI greater than 100 µM.

As for `S=c1[nH]c(=S)c2nnn(-c3ccccc3)c2[nH]1`, the TGI was greater than 100 µM.

Turning to `Cc1ccc(-c2n[nH]c(=O)n2/N=C\c2ccc([N+](=O)[O-])cc2)cc1`, the TGI is greater than 100 µM.

The compound `COc1ccc2c(c1)C(=O)OCCC2` returned a TGI greater than 100 µM.

Compound `COc1ccc(-n2cnn3c(=O)c4cn[nH]c4nc23)cc1` came in with a TGI greater than 10 µM.

As for `COc1ccc2c(c1)nc1n2C(c2c(Cl)cccc2Cl)SC1` (stereo unspecified), the TGI is greater than 100 µM.

`CCOC(=O)c1c(NC(=O)OC)c(C#N)c2n1CCCCC2`: the TGI was greater than 100 µM.

In turn, `COc1ccc(-c2nc(-c3cc4c(ccc5ccccc54)oc3=O)cs2)cc1` yielded a TGI greater than 100 µM.

In turn, `Cc1cc(C)c(C(=O)c2nnc3ccccc3c2N)c(C)c1` registered a TGI greater than 100 µM.

Take `CC1=CCC(C)=Nc2nc3ccccc3n21`: the TGI is greater than 100 µM.

The compound `N#Cc1[nH]c(=S)[nH]c1N` came in with a TGI greater than 100 µM.

In turn, `Cc1ccccc1N/C(=C(/C(Cl)=C(Cl)Cl)[N+](=O)[O-])n1nnc2ccccc21` returned a TGI of 30.8 µM.

Compound `CNS(=O)(=O)NNS(=O)(=O)c1ccc(Br)cc1` showed a TGI greater than 100 µM.

`Cc1ccc(NC(=O)CSc2nnc(-c3ccc(N=Cc4ccc(Cl)cc4)cc3)o2)cc1` gave a TGI greater than 100 µM.

`CCC1CCc2c(c(=O)oc3c2cc(OC)c2cccc(OC)c23)C1` (stereo unspecified) yielded a TGI greater than 100 µM.

Regarding `COC(=O)C1=C(C(=O)Nc2cccnc2Cl)N(c2ccc(OC)cc2[N+](=O)[O-])C(c2ccc(C)cc2)=CC1c1ccc(OC)cc1OC` (stereo unspecified), the TGI was determined as 78.5 µM.

Another assay has as its system SF-539 CNS. The assay can be described thus: growth of human tumour cells (NCI), 48 h.
Consider `Cc1nn(C(=O)Cc2ccccc2)c2c1C(c1ccc(Cl)cc1)SC(N)=N2` (stereo unspecified), for which the TGI is greater than 100 µM.

In turn, `S=c1[nH]c(=S)c2nnn(-c3ccccc3)c2[nH]1` gave a TGI greater than 100 µM.

As for `Cc1ccc(-c2n[nH]c(=O)n2/N=C\c2ccc([N+](=O)[O-])cc2)cc1`, the TGI was greater than 100 µM.

`COc1ccc2c(c1)C(=O)OCCC2` returned a TGI greater than 100 µM.

`COc1ccc(-n2cnn3c(=O)c4cn[nH]c4nc23)cc1` came in with a TGI greater than 10 µM.

Take `COc1ccc2c(c1)nc1n2C(c2c(Cl)cccc2Cl)SC1` (stereo unspecified): the TGI was greater than 100 µM.
